Consider two molecules from patent US20210052561A1, “TARGETING ASPARTATE BETA-HYDROXYLASE SUPPRESSES TUMOR MALIGNANCY AND METASTASIS” (Rhode Island Hospital, priority 2019, published 2021).

Each structure is given as a SMILES string. Entries after “also recorded” stand apart in the source; their conditions may differ. Where two headings read alike, the source gives them in different places.

The test system of data set [1] is HuCCT1 CCA cells. Put plainly: 24-hour transwell cell migration assay, HuCCT1. Format: cell-based, human. The following applies: 10 μM compound 14c, versus DMSO. As for the experimental part:
(§1) We used 5×10^4 HuCCT1 and 1×10^5 RBE cells in the migration assay.
(§2) Human cholangiocarcinoma cell lines, HuCCT1, RBE, and SSP25 were purchased from the RIKEN cell line bank. They were cultured in RPMI-1640 medium supplemented with 10% (v/v) fetal bovine serum, 2 mM of L-glutamine, and penicillin/streptomycin. A BDE-Neu cell line and BDE-Neu CL24 were cultured in Dulbecco's modified Eagle's medium supplemented with 10% (v/v) fetal bovine serum, 2 mM of L-glutamine, and penicillin/streptomycin. Plasmids pLKO.1-shRNA-luciferase (shLuc) and pLKO.1-shRNA-ASPH (shASPH) were purchased from Sigma-Aldrich (St. Louis, Mo.).
(§3) The cell migration assay was performed using transwell chambers (pore size: 8 μm, Corning 3422) coated with Matrigel® (Corning 354480). The cell invasion assay was performed by using transwell chambers coated with Matrigel® (Corning 354480) as previously described. In brief, 10^5 cells in 200 μl of serum-free medium were plated in the top chamber and 600 μl of culture medium containing 10% fetal bovine serum was preparedapplied in the lower chamber to stimulate cell for migration. Cells were incubated for 24 hours, fixed with methanol, stained with 10% Giemsa solution, and counted using ImageJ software (National Institute of Health, USA). The results of invasion assay were analyzed as described in the migration assay.

Data set [2] relates to RBE CCA cells. Put plainly: 24-hour transwell cell migration assay, RBE. Format: cell-based, human. The procedure: as §1, §2, §3
In data set [3] the test system is HuCCT1 CCA cells. The experiment in a line: cell invasion assay, matrix-coated Boyden chamber transwell, HuCCT1. The following applies: Homo sapiens, HuCCT-1, 10 μM compound 14c, versus DMSO, read-out: inhibition of cell invasion capacity. Format: cell-based. The procedure: as §2, §3
The subject of data set [4] is RBE CCA cells. The experiment in a line: cell invasion assay, matrix-coated Boyden chamber transwell, RBE. Format: cell-based. The note with it: Homo sapiens, 10 μM compound 14c, versus DMSO, read-out: inhibition of cell invasion capacity. The procedure:
as §2, §3

The subject of data set [5] is BDE-neu-CL24 cells. The experiment in a line: cell migration assay, rat BDE-neu CL24 CCA cells. Format: cell-based. The following applies: 10 μM, versus DMSO. As for the experimental part: as §2, §3
Data set [6] relates to intrahepatic CCA tumors from BDE-Neu-CL24 cells. The experiment in a line: rat intrahepatic syngeneic CCA metastasis model. Format: in vivo. The note with it: for CCA metastatic spread to the lung (metastatic nodules): rat, 10 mg/kg oral capsule daily for 18 days, versus control capsule, p=0.041, 10 mg/kg. The procedure:
Rats received 10 mg/kg (body weight) of the ASPH inhibitor daily for 18 days and sacrificed at day 21 post-surgery
The statistical analysis was performed using the Mann-Whitney U test. *, p<0.05 versus control.
The compound 55 (25 mg/kg) was given by i.p injection, and 10 mg/kg of compound 14c via i.p. injection 3 times per week. N=8-10 in each group.
(§4) The intrahepatic CCA metastatic models weremetastasis model was established with BDE-Neu-CL24 cells. Rats were anesthetized with isoflurane, the abdomen was opened, and the liver inoculated with 3×10^6 BDE-Neu-CL24 cells. The bile duct was then ligated following administration of 0.03 mg/kg of buprenorphine prior to surgery, and four hours after surgery, and the following morning for analgesia as needed. The rats were monitored daily and evaluated for weight change, body condition, and signs of ascites. The oral formulated compound 14c were prepared in capsules at a dose of 10 mg/kg and administered with an oral syringe. The rats were euthanized 18 days post-surgery with Isoflurane and cervical dislocation. Tumors were dissected away from the adjacent liver and weighed. All lung tissues were immersed in Bouin's fixative solution and the metastatic nodules on the surface of the lungs were counted.
Statistical analyses of two groups were done by Student's t-test unless otherwise stated. Equality of variance was examined using F-test. Mann-Whitney U test was used to assess the significance between the two groups with respect to the numbers of metastatic nodules in the rat lung by using the software “R”.
To evaluate whether compound 14c suppresses CCA metastasis in vivo, we performed experiments in a rat intrahepatic syngeneic CCA model by ligating the bile duct and inoculating rat BDE-neu-CL24 cells into the liver. We first determined that compound 14c inhibited BDE-neu-CL24 cells in vitro (FIG. 4A). The intrahepatic rat model was established and the rats challenged with a control capsule or a capsule containing compound 14c (10 mg/kg, FIG. 4B) orally and daily for 18 days, and animals were sacrificed on day 21 (FIG. 4C). The body weights were measured as a gross indicator of drug toxicity and were not affected compared to vehicle control (FIG. 7). The metastatic spread to the lung surface was determined (FIG. 4D).

A short description of data set [7]: body weights of experimental rats as gross indicator of drug toxicity. Format: in vivo. The note with it: rat, compound 14c 10 mg/kg, measured at the indicated experimental time points, n=8-10. The procedure:
There was no difference between the control and experimental groups.
as §4, with “The rats were euthanized 18 days post-surgery with Isoflurane and cervical dislocation. Tumors were dissected away from the adjacent liver and weighed.” left out
(§5) To evaluate whether compound 14c suppresses CCA metastasis in vivo, we performed experiments in a rat intrahepatic syngeneic CCA model by ligating the bile duct and inoculating rat BDE-neu-CL24 cells into the liver. We first determined that compound 14c inhibited BDE-neu-CL24 cells in vitro (FIG. 4A). […] The body weights were measured as a gross indicator of drug toxicity and were not affected compared to vehicle control (FIG. 7). The metastatic spread to the lung surface was determined (FIG. 4D).

Data set [8] has as its system MMP2. The experiment in a line: immunohistochemistry of primary intrahepatic tumor, MMP2. Format: in vivo. The following applies: rat, 10 mg/kg oral daily. The procedure:
(§6) The immunohistochemistry assay was performed as known in the art. Tissue slides were de-paraffined, re-hydrated, and then subjected to antigen-retrieval using the antigen unmasking solution (Vector Inc., H3300). The endogenous peroxidase activity was quenched with 3% H2O2 prepared in methanol. Tissues slides were further blocked with a 5% milk and BSA solution prepared in 1×PBST for 1 hour. The slides were incubated with ASPH, MMP2, and MMP14 antibodies prepared in with 3% BSA in PBS) overnight at 4° C. overnight. The slides were washed with 0.05% TBST three times and then incubated with 1:200 dilution of biotinylated secondary antibody (Vector Laboratories) and the ABC solution (Vector Laboratories) at 20° C. The slides were incubated with DAB substrate to detect positive staining. […] Images were taken using a Nikon microscope and analyzed with Image Pro Plus.
as §5

Data set [9] deals with MMP14. Put plainly: immunohistochemistry of primary intrahepatic tumor, MMP14. Format: in vivo. The note with it: rat, 10 mg/kg oral daily. As for the experimental part: as §6, §5
Data set [10] has as its target T1, ASPH (Homo sapiens, UniProt Q12797).
T1 sequence (Q12797 1-758): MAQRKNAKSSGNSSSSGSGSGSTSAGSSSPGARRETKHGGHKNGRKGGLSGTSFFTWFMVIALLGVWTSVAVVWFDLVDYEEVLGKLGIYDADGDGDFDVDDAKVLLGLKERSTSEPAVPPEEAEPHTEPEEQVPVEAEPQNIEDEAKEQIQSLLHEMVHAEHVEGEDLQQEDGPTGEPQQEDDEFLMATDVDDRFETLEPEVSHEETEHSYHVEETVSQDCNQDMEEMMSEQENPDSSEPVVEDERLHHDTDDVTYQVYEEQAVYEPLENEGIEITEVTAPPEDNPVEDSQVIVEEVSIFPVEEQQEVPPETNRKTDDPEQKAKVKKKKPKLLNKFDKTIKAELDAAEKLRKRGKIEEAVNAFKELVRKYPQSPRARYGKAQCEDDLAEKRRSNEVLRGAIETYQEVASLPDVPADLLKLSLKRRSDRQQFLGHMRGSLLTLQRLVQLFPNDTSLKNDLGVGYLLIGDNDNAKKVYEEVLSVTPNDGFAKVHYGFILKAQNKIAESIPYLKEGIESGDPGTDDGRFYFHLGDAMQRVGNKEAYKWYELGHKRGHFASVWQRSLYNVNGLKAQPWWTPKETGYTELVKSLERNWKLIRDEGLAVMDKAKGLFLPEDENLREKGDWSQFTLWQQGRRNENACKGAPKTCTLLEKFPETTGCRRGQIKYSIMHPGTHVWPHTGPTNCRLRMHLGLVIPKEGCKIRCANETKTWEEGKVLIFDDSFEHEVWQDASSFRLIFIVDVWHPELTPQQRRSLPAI
The experiment in a line: ASPH enzymatic (catalytic) activity. Format: biochemical. An excerpt:
FIGS. 5A-5B show a scheme for measuring ASPH catalytic activity.

A short description of data set [11]: water solubility. Format: physicochemical.
Setting [12] is: listed as third generation ASPH inhibitor.

In the case of `COC(=O)c1ccc(C2OC(N)=C(OS(=O)(=O)Cc3ccccc3)C2=O)cc1` (stereo not drawn) [compound 14c], the “reduction of cell migration” value in data set [1] is recorded as 50%; in data set [2] (10 μM compound 14c, 24-hour transwell, versus DMSO) it was 70%. Further, in data set [2] (comparison of ASPH inhibitor generations, concentration not stated), the “reduction of RBE CCA cell migration” value is on record as “approximately 70%”. Further, the figures for the inhibition at 10 µM in data set [3] and in [4] were 60% and 83%, respectively. For the same molecule, the “inhibition of BDE-neu-CL24 cells in vitro (cell migration, FIG. 4A)” value in data set [5] was “inhibited”. For the same molecule, the “effects on CCA progression as compared to compound 55 (FIG. 6A, weight of CCA tumors)” value in [6] (rat CCA model, compound 14c 10 mg/kg i.p. 3 times per week versus compound 55 25 mg/kg i.p.) is recorded as “improved effects”. Moreover, the “CCA metastatic spread to the lung (metastatic nodules)” value in data set [6] is listed as “substantially decreased”; in data set [6] (setting [12]), “suppressed”. Besides, in [7], the “body weights compared to vehicle control” value was “not affected; also recorded: no difference”. Besides, in [8], the “MMP2 protein expression in primary intrahepatic tumor” value is given as “significantly down-regulated”. In addition, in data set [9], the “MMP14 protein expression in primary intrahepatic tumor” value was “significantly down-regulated”. Also, the “inhibitory effects on ASPH (enzymatic) activity compared to previous generations of ASPH SMIs” value in data set [10] is reported as “improved”; in data set [10] (setting [12]), “increased potency”. For the same molecule, the “water solubility compared to previous generations of ASPH SMIs” value in data set [11] is “improved water solubility”; in data set [11] (setting [12]) it was “more water soluble”.
On to `NC1=C(OS(=O)(=O)Cc2ccccc2)C(=O)C(c2ccc(C(F)(F)F)cc2)O1` (stereo not drawn) [compound 55, 2-(4-trifluoromethylphenyl)-4-[[phenylmethylsulfonyl]oxy]-5-amino-3(2H)-furanone], for which, in data set [6] (rat model, 25 mg/kg, daily), the “anti-tumor effects on metastatic spread to the lung” value is listed as “did not achieve satisfactory anti-tumor effects” and the “anti-tumor effects on primary tumor growth” value was “did not achieve satisfactory anti-tumor effects”.

Usually inhibition stands for the change of the read-out against control, counted positive when it falls.
